B1: Wnt1: wingless-type MMTV integration site family, member 1; growth factor, 20 ng/ml, R&D (protein, UniProt P04628 28-370, looked up)
Proto-oncogene Wnt-1: ANSSGRWWGIVNVASSTNLLTDSKSLQLVLEPSLQLLSRKQRRLIRQNPGILHSVSGGLQSAVRECKWQFRNRRWNCPTAPGPHLFGKIVNRGCRETAFIFAITSAGVTHSVARSCSEGSIESCTCDYRRRGPGGPDWHWGGCSDNIDFGRLFGREFVDSGEKGRDLRFLMNLHNNEAGRTTVFSEMRQECKCHGMSGSCTVRTCWMRLPTLRAVGDVLRDRFDGASRVLYGNRGSNRASRAELLRLEPEDPAHKPPSPHDLVYFEKSPNFCTYSGRLGTAGTAGRACNSSSPALDGCELLCCGRGHRTRTQRVTERCNCTFHWCCHVSCRNCTHTRVLHECL
B2: Wnt5a: wingless-type MMTV integration site family, member 15a (as printed); growth factor, 20 ng/ml, R&D (protein, UniProt P41221 62-380, looked up)
Protein Wnt-5a: IIGAQPLCSQLAGLSQGQKKLCHLYQDHMQYIGEGAKTGIKECQYQFRHRRWNCSTVDNTSVFGRVMQIGSRETAFTYAVSAAGVVNAMSRACREGELSTCGCSRAARPKDLPRDWLWGGCGDNIDYGYRFAKEFVDARERERIHAKGSYESARILMNLHNNEAGRRTVYNLADVACKCHGVSGSCSLKTCWLQLADFRKVGDALKEKYDSAAAMRLNSRGKLVQVNSRFNSPTTQDLVYIDPSPDYCVRNESTGSLGTQGRLCNKTSEGMDGCELMCCGRGYDQFKTVQTERCHCKFHWCCYVKCKKCTEIVDQFVCK

Experiments:
[1] = system: Human neural stem cells; test: Proliferation of neural stem cells treated with various bioactive molecules (alternating growth conditions, cell counting); assay type: cell-based; details: second 8 weeks of 16; factor + 1% FBS alternating weekly with EGF, bFGF, LIF, no FBS
Method: hNSC's were alternately cultured in media containing a certain growth factor and serum (GF+FBS) or in the media containing EFL but lacking the presence of fetal bovine serum (EFL−FBS) as shown in FIG. 3. The media was changed on days 7 and 14 after plating the cells. This example utilized an initial incubation in EFL−FBS, followed by incubation in media including FBS. Experimental analysis of hNSCs was carried out on days 5, 10, 15, and 20, if not otherwise indicated.
Medium 2 (+GFs): DMEM/F12 (1:1), 2% B27 (Gibco), 1% Pen-Strep (PAA), 1% FBS (Gibco)+one of the combination of growth factors (CNTF, Jagged, SHH, TGFa, Wnt1, Wnt5A, or all)
7 different combinations of growth factors were used: 2.1. CNTF (20 ng/ml, Peprotech); 2.2. Jagged (20 ng/ml, Peprotech); 2.3. SHH (20 ng/ml, Peprotech); 2.4. TGFa (20 ng/ml, Peprotech); 2.5 Wnt1 (20 ng/ml, R&D); 2.6 Wnt5A (20 ng/ml, R&D); and 2.7 all above.
On days 5, 10, 15, and 20, if not otherwise indicated, neurospheres were dissociated using trypsin and single cells were counted using a hemocytometer. As a control, hNSCs were continuously grown in the absence of serum, but in the presence of growth factors EFL (control). The color code indicates the specific growth factor (GF) that was used in the GF+FBS mode. Abbreviations used: GF, growth factor; CNTF, ciliary neurotrophic factor; Jagged, SHH, sonic hedgehog; TGFα, transforming growth factor alpha; Wnt1, wingless-type MMTV integration site family, member 1; Wnt5A wingless-type MMTV integration site family, […]; or combined (CNTF, Jagged, SHH, TGFα, Wnt1, Wnt5A), E, EGF; F, bFGF; L, LIF.
Human neural stem cells are most routinely grown in medium supplemented with EGF and bFGF (and LIF). […] Cells were grown for 16 weeks and counted regularly every two weeks. […] Cells were counted 8 times. […] At the last time point analyzed, 5 times more cells were grown with control medium than under any other conditions.

[2] = system: Human neural stem cells; test: Differentiation of neural stem cells to neurons and astrocytes (bTubIII immunostaining on laminin); assay type: cell-based; details: cells taken after 8 and 12 weeks in culture, 14 days on laminin without factors; 3 random fields counted
Method: Next, how the stimulation of signaling pathways affects the commitment of human neural stem cells to neuronal and glial lineages was examined. For differentiation, samples of cells grown in all 8 conditions were removed from proliferating cell populations (after 8 and 12 weeks in culture) and plated onto laminin coated coverslips. All additional factors were excluded from culture medium and cells were grown for 14 days. Next, cells were fixed and stained for neural and glial markers as described previously. Examples of immunocytochemistry analysis can be seen on FIG. 8. […] No cells were detected as positive for oligodendrocyte marker O4. After immunostaining, cells from 3 random fields were counted and their differentiation potential was estimated according to the number of bTubIII positive cells present in samples. Results can be seen on FIG. 9. […] Cells grown with Wnt5a had the least percentage of bTubIII positive cells (33%), all the other conditions gave 41 to 47% of bTubIII positive cells (in control 45%).

Molecule | support of cell growth [1] | percentage of bTubIII positive cells [2]
Jagged-1: Jagged growth factor, 20 ng/ml, Peprotech | slightly more efficient than the others | 
TGFa: transforming growth factor alpha, 20 ng/ml, Peprotech | slightly more efficient than the others | 
B1 | slightly more efficient than the others | 
B2 |  | 33%
